According to patent US9561168B2, “Oral care compositions” (Colgate-Palmolive Company, priority 2011, dated 2017):

Experiments:
Actinomyces viscosus = experiment: Minimum inhibitory concentration (MIC) against Actinomyces viscosus; assay type: cell-based
Method: (§1) Mixed species bacteria are grown as follows: Actinomyces viscosus (ATCC #31346) is grown in trypticase soy broth supplemented with 0.6% yeast extract (TSB-YE) at 37° C., static culture. For mixed species assays, the source of bacteria is a continuous culture chemostat inoculated with A. viscosus, Lactobacillus casei (ATCC #334), Streptococcus oralis (ATCC #35037), Fusobacterium nucleatum (ATCC #10953), and Veilonella parvula (ATCC #17745). This mixed culture is maintained in a specialized complex medium in a continuous culture chemostat at 37° C.
Gallium nitrate is assessed in oral biofilm models. […] The advantage of gallium over other agents is that it appears to target the relatively starved bacteria found deeper in the biofilms that are usually less accessible to traditional antimicrobial agents.

[1] = system: five species biofilm (A. viscosus, Lactobacillus casei, Streptococcus oralis, Fusobacterium nucleatum, Veilonella parvula); experiment: Mixed (five) species biofilm test on saliva-coated HAP disks; assay type: cell-based; conditions: 250 ppm of ε-polylysine
Method: Mixed species biofilms are preformed on saliva-coated HAP disks (scHAP). Following saliva coating, disks are inoculated with 1 ml of mixed species culture from the continuous culture chemostat described above diluted to an OD610 of ˜0.2 in 0.5×TSB. Plates are incubated for 48 h at 37° C. to allow biofilms to form.
Disks containing preformed biofilms are transferred to a fresh 24-well culture plate and 1 ml of sterile 0.5×TSB medium containing the indicted concentration of test compound is added to each disk. Plates are incubated for 1 h at 37° C. with gentle agitation. […] Plates are sonicated for 2 min to pellet any residual HAP and supernatants are removed to fresh plates so that absorbance could be read at 610 nm.
All samples are tested in triplicate and the average of the three wells determined.

[2] = system: single species Actinomyces viscosus biofilms; experiment: Inhibition of single species Actinomyces viscosus biofilm formation; assay type: cell-based; conditions: single species A. viscosus biofilm
Method: as §1

[3] = system: other oral bacterial species tested; experiment: Antimicrobial activity against other oral bacterial species; assay type: cell-based; conditions: any other oral bacterial species tested (other than A. viscosus)
[4] = antimicrobial agents currently in use in oral formulations; organism not stated; cited from earlier work

Molecule	minimum inhibitory concentration (MIC) (Actinomyces viscosus)	inhibition of multispecies biofilm formation [1]	concentration able to inhibit formation of single species biofilms [2] [ppm]	antimicrobial activity against other oral bacterial species [3]	MTC values [4]
ε-Polylysine	< 1 ppm	less than 20%	< 1	does not have antimicrobial activity	–
O=[N+]([O-])[O-].O=[N+]([O-])[O-].O=[N+]([O-])[O-].[Ga+3] [gallium nitrate]	approximately 60 ppm	–	30	–	–
Oc1cc(Cl)ccc1Oc1ccc(Cl)cc1Cl [triclosan]	–	–	–	–	less than 10 ppm
